Experimental data reported in patent publication US8859535B2, “Hydroxy substituted isoquinolinone derivatives” (Novartis AG, priority 2011, dated 2014).

How the values were obtained:
[1] = biological target: T1, human MDM2 protein (amino acids 2-188) (Homo sapiens, UniProt Q00987); assay: p53-MDM2 TR-FRET assay (p53-MDM2 Assay 1); format: binding; conditions: 1.25 nM MDM2-biotinylated, 10 nM Cy5-p53 peptide; read-out: IC50 (μM) of p53-Hdm2 inhibition (TR-FRET) Assay 1
T1 construct: human MDM2 protein (amino acids 2-188); made in house
T1 sequence (Q00987 2-188): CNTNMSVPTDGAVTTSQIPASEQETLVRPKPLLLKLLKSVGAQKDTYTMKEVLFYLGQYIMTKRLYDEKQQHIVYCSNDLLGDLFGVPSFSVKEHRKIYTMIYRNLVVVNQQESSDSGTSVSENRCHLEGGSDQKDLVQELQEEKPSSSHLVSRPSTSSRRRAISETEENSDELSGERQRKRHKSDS
Procedure: (§1) Time Resolved Fluorescence Energy Transfer (TR-FRET) Assay
(§2) The inhibition of p53-MDM2 and p53-MDM4 interactions is measured by time resolved fluorescence energy transfer (TR-FRET). Fluorescence energy transfer (or Foerster resonance energy transfer) describes an energy transfer between donor and acceptor fluorescent molecules. For this assay, human MDM2 protein (amino acids 2-188) and human MDM4 protein (amino acids 2-185), tagged with a C-terminal biotin moiety, are used in combination with a Europium labeled streptavidin (Perkin Elmer, Inc., Waltham, Mass., USA) serving as the donor fluorophore. The p53 derived, Cy5 labeled peptide Cy5-TFSDLWKLL (p53 aa18-26) is the energy acceptor. Upon excitation of the donor molecule at 340 nm, binding interaction between MDM2 or MDM4 and the p53 peptide induces energy transfer and enhanced response at the acceptor emission wavelength at 665 nm. Disruption of the formation of the p53-MDM2 or p53-MDM4 complex due to an inhibitor molecule binding to the p53 binding site of MDM2 or MDM4 results in increased donor emission at 620 nm. The ratiometric FRET assay readout is calculated from the raw data of the two distinct fluorescence signals measured in time resolved mode (fluorescence 665 nm/fluorescence 620 nm×1000).
(§3) After addition of 1.25 nM MDM2-biotinylated or 2.5 nM MDM4-biotinylated (internal preparations), and 0.625 nM Europium labeled streptavidin (Perkin Elmer), the solution is pre-incubated for 15 minutes at room temperature, then 10 nM Cy5-p53 peptide (internal preparation) is added before an incubation at room temperature for 15 minutes prior to reading the plate. For measurement of samples, a Victor II microplate reader (Perkin Elmer) is used with the following settings: Excitation 340 nm, Emission Donor 620 nm and Emission Acceptor 665 nm. IC50 values are calculated by curve fitting using XLfit. If not specified, reagents are purchased from Sigma-Aldrich Chemie GmBH, Buchs, Switzerland.
(§4) This assay was used to evaluate compounds displaying inhibition of p53-MDM2 interaction and p53-MDM4 interaction at IC50s of 0.005 to 50 μM (p53-MDM2 Assay 1 and p53-MDM4 Assay 1, respectively). For selected compounds displaying IC50s between […] on MDM2, a slightly modified assay is used with the following adaptations: 0.1 nM MDM2, 0.1 nM Europium labeled streptavidin and Tecan genios Pro is used as a microplate reader for the fluorescence measurements (p53-MDM2 Assay 2).

[2] = biological target: T2, human MDM4 protein (amino acids 2-185) (Homo sapiens, UniProt O15151); assay: p53-MDM4 TR-FRET assay (p53-MDM4 Assay 1); format: binding; conditions: 2.5 nM MDM4-biotinylated, 10 nM Cy5-p53 peptide; read-out: IC50 (μM) of p53-Hdm4 inhibition (TR-FRET) Assay 1
T2 construct: human MDM4 protein (amino acids 2-185); made in house
T2 sequence (O15151 2-185): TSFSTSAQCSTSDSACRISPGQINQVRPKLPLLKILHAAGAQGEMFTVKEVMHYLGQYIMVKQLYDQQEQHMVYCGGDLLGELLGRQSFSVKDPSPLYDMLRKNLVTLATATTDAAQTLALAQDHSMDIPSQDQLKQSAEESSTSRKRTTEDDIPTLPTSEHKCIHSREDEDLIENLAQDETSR
Procedure: as §1, §2, §3, §4

SMILES | IC50 [1] | IC50 [2]
COc1cc2c(cc1OC(C)C)[C@H](c1ccc(Cl)cc1)N(c1ccc(C(C)(O)c3ccccn3)cc1)C(=O)C2 (stereo partly drawn) [Example 18, (S)-1-(4-Chloro-phenyl)-2-[4-(1-hydroxy-1-pyridin-2-yl-ethyl)-phenyl]-7-isopropoxy-6-methoxy-1,4-dihydro-2H-isoquinolin-3-one] | 0.0368 µM | 37.2 µM
COc1cc2c(cc1OC(C)C)[C@H](c1ccc(Cl)cc1)N(c1ccc(C(C)(O)c3ccc(F)c(F)c3)cc1)C(=O)C2 (stereo partly drawn) [Example 19, (S)-1-(4-Chloro-phenyl)-2-{4-[1-(3,4-difluoro-phenyl)-1-hydroxy-ethyl]-phenyl}-7-isopropoxy-6-methoxy-1,4-dihydro-2H-isoquinolin-3-one] | 0.0446 µM | 87.2 µM
COc1cc(OC)cc(C(C)(O)c2ccc(N3C(=O)Cc4cc(OC)c(OC(C)C)cc4[C@@H]3c3ccc(Cl)cc3)cc2)c1 (stereo partly drawn) [Example 22, (S)-1-(4-Chloro-phenyl)-2-{4-[1-(3,5-dimethoxy-phenyl)-1-hydroxy-ethyl]-phenyl}-7-isopropoxy-6-methoxy-1,4-dihydro-2H-isoquinolin-3-one] | 0.0225 µM | 21.7 µM
COc1ccc(C(C)(O)c2ccc(N3C(=O)Cc4cc(OC)c(OC(C)C)cc4[C@@H]3c3ccc(Cl)cc3)cc2)cn1 (stereo partly drawn) [Example 23, (S)-1-(4-Chloro-phenyl)-2-{4-[1-hydroxy-1-(6-methoxy-pyridin-3-yl)-ethyl]-phenyl}-7-isopropoxy-6-methoxy-1,4-dihydro-2H-isoquinolin-3-one] | 0.0159 µM | 24.7 µM
COc1cc2c(cc1OC(C)C)[C@H](c1ccc(Cl)cc1)N(c1ccc(C(C)(O)c3ccc(NC(C)=O)cc3)nc1)C(=O)C2 (stereo partly drawn) [Example 24, N-[4-(1-{5-[(S)-1-(4-Chloro-phenyl)-7-isopropoxy-6-methoxy-3-oxo-3,4-dihydro-1H-isoquinolin-2-yl]-pyridin-2-yl}-1-hydroxy-ethyl)-phenyl]-acetamide] | 0.0544 µM | 61.3 µM
COc1cc2c(cc1OC(C)C)[C@H](c1ccc(Cl)cc1)N(c1ccc(C(C)(O)c3ccc(NC(C)=O)cc3)cn1)C(=O)C2 (stereo partly drawn) [Example 25, N-[4-(1-{6-[(S)-1-(4-Chloro-phenyl)-7-isopropoxy-6-methoxy-3-oxo-3,4-dihydro-1H-isoquinolin-2-yl]-pyridin-3-yl}-1-hydroxy-ethyl)-phenyl]-acetamide] | 0.0112 µM | 19.5 µM
COc1cc2c(cc1OC(C)C)[C@H](c1ccc(Cl)cc1)N(c1ccc([C@@](C)(O)c3ccc(NC(C)=O)cc3)cc1)C(=O)C2 [Example 26, N-[4-((S)-1-{4-[(S)-1-(4-Chloro-phenyl)-7-isopropoxy-6-methoxy-3-oxo-3,4-dihydro-1H-isoquinolin-2-yl]-phenyl}-1-hydroxy-ethyl)-phenyl]-acetamide] | 0.0043 µM | 8.25 µM
COc1cc2c(cc1OC(C)C)[C@H](c1ccc(Cl)cc1)N(c1ccc([C@](C)(O)c3ccc(NC(C)=O)cc3)cc1)C(=O)C2 [Example 27, N-[4-((R)-1-{4-[(S)-1-(4-Chloro-phenyl)-7-isopropoxy-6-methoxy-3-oxo-3,4-dihydro-1H-isoquinolin-2-yl]-phenyl}-1-hydroxy-ethyl)-phenyl]-acetamide] | 0.0458 µM | 36.3 µM
COc1cc2c(cc1OC(C)C)[C@H](c1ccc(Cl)cc1)N(c1ccc(C(C)(O)c3ccc(NC(C)=O)cc3)c(F)c1)C(=O)C2 (stereo partly drawn) [Example 28, N-[4-(1-{4-[(S)-1-(4-Chloro-phenyl)-7-isopropoxy-6-methoxy-3-oxo-3,4-dihydro-1H-isoquinolin-2-yl]-2-fluoro-phenyl}-1-hydroxy-ethyl)-phenyl]-acetamide] | 0.0066 µM | 9.7 µM
COc1cc2c(cc1OC(C)C)[C@H](c1ccc(Cl)cc1)N(c1ccc(C(C)(O)CNC(C)=O)cc1)C(=O)C2 (stereo partly drawn) [Example 29, N-(2-{4-[(S)-1-(4-Chloro-phenyl)-7-isopropoxy-6-methoxy-3-oxo-3,4-dihydro-1H-isoquinolin-2-yl]-phenyl}-2-hydroxy-propyl)-acetamide] | 0.143 µM | 39.7 µM
COc1cc2c(cc1OC(C)C)[C@H](c1ccc(Cl)cc1)N(c1ccc(C(C)(O)C3CCN(C(C)=O)CC3)cc1)C(=O)C2 (stereo partly drawn) [Example 31, (S)-2-{4-[1-(1-Acetyl-piperidin-4-yl)-1-hydroxy-ethyl]-phenyl}-1-(4-chloro-phenyl)-7-isopropoxy-6-methoxy-1,4-dihydro-2H-isoquinolin-3-one] | 0.0023 µM | 2.31 µM
COc1cc2c(cc1OC(C)C)[C@H](c1ccc(Cl)cc1)N(c1ccc(C(C)(O)C3CCOCC3)cc1OC)C(=O)C2 (stereo partly drawn) [Example 36, (S)-1-(4-Chloro-phenyl)-2-{4-[1-hydroxy-1-(tetrahydro-pyran-4-yl)-ethyl]-2-methoxy-phenyl}-7-isopropoxy-6-methoxy-1,4-dihydro-2H-isoquinolin-3-one] | 0.0051 µM | 6.03 µM

Next, values leading:

IC50 [1] | IC50 [2] | SMILES
0.0117 µM | 13.8 µM | COc1cc2c(cc1OC(C)C)[C@H](c1ccc(Cl)cc1)N(c1ccc(C(C)(O)C3CCOCC3)cn1)C(=O)C2 (stereo partly drawn) [Example 37, (S)-1-(4-Chloro-phenyl)-2-{5-[1-hydroxy-1-(tetrahydro-pyran-4-yl)-ethyl]-pyridin-2-yl}-7-isopropoxy-6-methoxy-1,4-dihydro-2H-isoquinolin-3-one]
0.0328 µM | 31.6 µM | COc1cc2c(cc1OC(C)C)[C@H](c1ccc(Cl)cc1)N(c1ccc(C(O)C3CCOCC3)cc1)C(=O)C2 (stereo partly drawn) [Example 40, (S)-1-(4-Chloro-phenyl)-2-{4-[hydroxy-(tetrahydro-pyran-4-yl)-methyl]-phenyl}-7-isopropoxy-6-methoxy-1,4-dihydro-2H-isoquinolin-3-one]
0.0091 µM | 14.9 µM | COc1cc2c(cc1OC(C)C)[C@H](c1ccc(Cl)cc1)N(c1ccc(C(C)(O)C3CCN(C(=O)OC(C)(C)C)CC3)cc1)C(=O)C2 (stereo partly drawn) [Example 42, 4-(1-{4-[(S)-1-(4-Chloro-phenyl)-7-isopropoxy-6-methoxy-3-oxo-3,4-dihydro-1H-isoquinolin-2-yl]-phenyl}-1-hydroxy-ethyl)-piperidine-1-carboxylic acid tert-butyl ester]
0.0041 µM | 4.99 µM | COc1cc2c(cc1OC(C)C)[C@H](c1ccc(Cl)cc1)N(c1ccc(C(C)(O)C3CCNCC3)cc1)C(=O)C2 (stereo partly drawn) [Example 43, (S)-1-(4-Chloro-phenyl)-2-[4-(1-hydroxy-1-piperidin-4-yl-ethyl)-phenyl]-7-isopropoxy-6-methoxy-1,4-dihydro-2H-isoquinolin-3-one]
0.0089 µM | 17.4 µM | COc1cc2c(cc1OC(C)C)[C@H](c1ccc(Cl)cc1)N(c1ccc(C(C)(O)C3CCC(F)(F)CC3)cc1)C(=O)C2 (stereo partly drawn) [Example 45, (S)-1-(4-Chloro-phenyl)-2-{4-[1-(4,4-difluoro-cyclohexyl)-1-hydroxy-ethyl]-phenyl}-7-isopropoxy-6-methoxy-1,4-dihydro-2H-isoquinolin-3-one]
0.0432 µM | 44.5 µM | COc1cc2c(cc1OC(C)C)[C@H](c1ccc(Cl)cc1)N(c1ccc(C(C)(O)C3CCOC3)cc1)C(=O)C2 (stereo partly drawn) [Example 48, (S)-1-(4-Chloro-phenyl)-2-{4-[1-hydroxy-1-(tetrahydro-furan-3-yl)-ethyl]-phenyl}-7-isopropoxy-6-methoxy-1,4-dihydro-2H-isoquinolin-3-one]
0.011 µM | 8.07 µM | COc1cc2c(cc1OC(C)C)[C@H](c1ccc(Cl)cc1)N(c1ccc(C(C)(O)C3CCNC(=O)C3)cc1)C(=O)C2 (stereo partly drawn) [Example 49, (S)-1-(4-Chloro-phenyl)-2-{4-[1-hydroxy-1-(2-oxo-piperidin-4-yl)-ethyl]-phenyl}-7-isopropoxy-6-methoxy-1,4-dihydro-2H-isoquinolin-3-one]
